Values of other authors, collected in patent US20090137477A1, “Treatment of oropharyngeal candidiasis in cancer patients” (BIOALLIANCE PHARMA, priority 2007, published 2009).

Test system: oropharyngeal candidiasis
Details: orally 50 mg/day for 14 days

For `OC(Cn1cncn1)(Cn1cncn1)c1ccc(F)cc1F` [fluconazole], the clinical cure is listed as 21% and the clinical response is listed as 53%.
